In general, EC50 refers to the midpoint of the concentration-response curve. A low value points to a more potent agent.

The subject of this test is HCV genotype 1b replicon. Kind of test: HCV replicon assay, genotype 1b. Particulars: Hepatitis C virus; genotype 1b replicon cells, 24 to 72 hours incubation, luciferase activity. The format is cell-based, hepatitis C virus. As for the experimental part: The HCV replicons and NS5A inhibitory activity of the present compounds may be tested using assays known in the art. HCV inhibitors, such as those described in the Examples herein have activities in genotype 1b, 2a and 1a replicon assays of from about 1 pM to about 1 μM. The assay is performed by incubating a replicon harboring cell-line in the presence of inhibitor for a set period of time and measuring the effect of the inhibitor on HCV replicon replication either directly by quantifying replicon RNA level, or indirectly by measuring enzymatic activity of a co-encoded reporter enzyme such as luciferase or β-lactamase. By performing a series of such measurements at different inhibitor concentrations, the effective inhibitory concentration of the inhibitor (EC50 or EC90) is determined. See Jan M. Vrolijk et al., A replicons-based bioassay for the measurement of interferons in patients with chronic hepatitis C, 110 J. VIROLOGICAL METHODS 201 (2003). Such assays may also be run in an automated format for high through-put screening. See Paul Zuck et al., A cell-based β-lactamase reporter gene assay for the identification of inhibitors of hepatitis C virus replication, 334 ANALYTICAL BIOCHEMISTRY 344 (2004).
Measurement of inhibition by compounds was performed using the HCV replicon system. Several different replicons encoding different HCV genotypes or mutations were used. In addition, potency measurements were made using different formats of the replicon assay, including different ways of measurements and different plating formats. See Jan M. Vrolijk et al., A replicons-based bioassay for the measurement of interferons in patients with chronic hepatitis C, 110 J. VIROLOGICAL METHODS 201 (2003); Steven S. Carroll et al., Inhibition of Hepatitis C Virus RNA Replication by 2′-Modified Nucleoside Analogs, 278(14) J. BIOLOGICAL CHEMISTRY 11979 (2003). However, the underlying principles are common to all of these determinations, and are outlined below.
Stable neomycin phosphotransferase encoding replicon-harboring cell lines were used, so all cell lines were maintained under G418 selection prior to the assay. In some cases, the cell lines encoded a luciferase:Neor fusion and could be assayed either directly by determination of RNA copy number, or indirectly through measurement of the luciferase activity.
To initiate an assay, replicon cells were plated in the presence of a dilution series of test compound in the absence of G418. Typically, the assays were performed in a 96-well plate format for manual operation, or a 384-well plate in an automated assay. Replicon cells and compound were incubated for 24 to 72 hours. At the end of the assay, cells are washed free of media and compound and then lysed. Luciferase activity was measured using a conventional luciferase assay. EC50 determinations were calculated as a percent of a DMSO control by fitting the data to a four parameter fit function.
The activity table below provides representative data illustrating observed activity against genotype 1b.
As for `CC(C)(C)OC(=O)N[C@@H](C(=O)N1CCC[C@H]1C(=O)Nc1ccc2[nH]c(-c3ccc(-c4cnc([C@@H]5CCCN5C(=O)OCc5ccccc5)[nH]4)cc3)cc2c1)c1ccccc1` [Example 100, benzyl (2S)-2-[5-(4-{5-[(1-{(2R)-2-[(tert-butoxycarbonyl)amino]-2-phenylacetyl}-L-prolyl)amino]-1H-indol-2-yl}phenyl)-1H-imidazol-2-yl]pyrrolidine-1-carboxylate], a half-maximal effect (EC50) was put at 0.031 nM. Then `CN(C)[C@@H](C(=O)N1CCC[C@H]1C(=O)Nc1ccc2[nH]c(-c3ccc(-c4cnc([C@@H]5CCCN5C(=O)[C@@H](c5ccccc5)N(C)C)[nH]4)cc3)cc2c1)c1ccccc1` [Example 101, 1-[(2R)-2-(dimethylamino)-2-phenylacetyl]-N-{2-[4-(2-{(2S)-1-[(2R)-2-(dimethylamino)-2-phenylacetyl]pyrrolidin-2-yl}-1H-imidazol-5-yl)phenyl]-1H-indol-5-yl}-L-prolinamide], with 0.5 nM; and `CC(C)(C)OC(=O)N[C@@H](C(=O)N1CCC[C@H]1C(=O)Nc1ccc2[nH]c(-c3ccc(-c4c[nH]cn4)cc3)cc2c1)c1ccccc1` [Example 102, tert-butyl {(1R)-2-[(2S)-2-({2-[4-(1H-imidazol-4-yl)phenyl]-1H-indol-5-yl}carbamoyl)pyrrolidin-1-yl]-2-oxo-1-phenylethyl}carbamate], with 8.3 nM; and `CN(C)[C@H](C(=O)N1CCC[C@H]1C(=O)Nc1ccc2[nH]c(-c3ccc(-c4cnc([C@@H]5CCCN5C(=O)[C@H](c5ccccc5)N(C)C)[nH]4)cc3)cc2c1)c1ccccc1` [Example 103, 1-[(2S)-2-(dimethylamino)-2-phenylacetyl]-N-{2-[4-(2-{(2S)-1-[(2S)-2-(dimethylamino)-2-phenylacetyl]pyrrolidin-2-yl}-1H-imidazol-5-yl)phenyl]-1H-indol-5-yl}-L-prolinamide], with 5.7 nM. Then `CC(=O)N1CCC[C@H]1c1ncc(-c2ccc(-c3cc4cc(NC(=O)[C@@H]5CCCN5C(=O)[C@H](NC(=O)OC(C)(C)C)c5ccccc5)ccc4[nH]3)cc2)[nH]1` [Example 105, tert-butyl{(1R)-2-[(2S)-2-{[2-(4-{2-[(2S)-1-acetylpyrrolidin-2-yl]-1H-imidazol-5-yl}phenyl)-1H-indol-5-yl]carbamoyl}pyrrolidin-1-yl]-2-oxo-1-phenylethyl}carbamate], with 0.08 nM. The figure for `CN(C)[C@@H](C(=O)N1CCC[C@H]1c1ncc(-c2ccc(-c3cc4cc(NC(=O)[C@@H]5CCCN5C(=O)[C@H](NC(=O)OC(C)(C)C)c5ccccc5)ccc4[nH]3)cc2)[nH]1)c1ccccc1` [Example 107, tert-butyl {(1R)-2-[(2S)-2-({2-[4-(2-{(2S)-1-[(2R)-2-(dimethylamino)-2-phenylacetyl]pyrrolidin-2-yl}-1H-imidazol-5-yl)phenyl]-1H-indol-5-yl}carbamoyl)pyrrolidin-1-yl]-2-oxo-1-phenylethyl}carbamate] is 0.04 nM; for `COC(=O)N[C@H](C(=O)N1CCC[C@H]1C(=O)Nc1ccc2[nH]c(-c3ccc(-c4cnc([C@@H]5CCCN5C(=O)[C@@H](NC(=O)OC)C(C)C)[nH]4)cc3)cc2c1)C(C)C` [Example 116, N-(methoxycarbonyl)-L-valyl-N-{2-[4-(2-{(2S)-1-[N-(methoxycarbonyl)-L-valyl]pyrrolidin-2-yl}-1H-imidazol-5-yl)phenyl]-1H-indol-5-yl}-L-prolinamide] it is 0.065 nM; for `CC(C)OC(=O)N[C@@H](C(=O)N1CCC[C@H]1C(=O)Nc1ccc2[nH]c(-c3ccc(-c4ncc([C@@H]5CCCN5C(=O)[C@H](NC(=O)OC(C)C)c5ccccc5)[nH]4)cc3)cc2c1)c1ccccc1` [Example 119, propan-2-yl [(1R)-2-oxo-1-phenyl-2-{(2S)-2-[2-(4-{5-[({(2S)-1-[(2R)-2-phenyl-2-{[(propan-2-yloxy)carbonyl]amino}acetyl]pyrrolidin-2-yl}carbonyl)amino]-1H-indol-2-yl}phenyl)-1H-imidazol-5-yl]pyrrolidin-1-yl}ethyl]carbamate] it is 0.013 nM. In the case of `CC(C)(C)OC(=O)N[C@@H](C(=O)N1CCC[C@H]1C(=O)Nc1ccc2[nH]c(-c3ccc4[nH]c([C@@H]5CCCN5C(=O)[C@H](NC(=O)OC(C)(C)C)c5ccccc5)nc4c3)cc2c1)c1ccccc1` [Example 125, tert-butyl [(1R)-2-{(2S)-2-[(2-{2-[(2S)-1-{(2R)-2-[(tert-butoxycarbonyl)amino]-2-phenylacetyl}pyrrolidin-2-yl]-1H-benzimidazol-5-yl}-1H-indol-5-yl)carbamoyl]pyrrolidin-1-yl}-2-oxo-1-phenylethyl]carbamate], the midpoint of the response, the EC50, lay at 0.016 nM. Compound `O=C(Nc1ccc(-c2[nH]c3ccc(NC(=O)[C@@H]4CCCN4C(=O)Cc4ccccc4)cc3c2F)cc1)[C@@H]1CCCN1C(=O)Cc1ccccc1` [Example 129, (2S)-N-{4-[3-fluoro-5-({[(2S)-1-(phenylacetyl)pyrrolidin-2-yl]carbonyl}amino)-1H-indol-2-yl]phenyl}-1-(phenylacetyl) pyrrolidine-2-carboxamide] yielded a concentration for a half-maximal effect (EC50) of 0.7 nM.

On to `CC(C)(C)OC(=O)N[C@H](C(=O)N1CCC[C@H]1C(=O)Nc1ccc(-c2[nH]c3ccc(NC(=O)[C@@H]4CCCN4C(=O)[C@@H](NC(=O)OC(C)(C)C)c4ccccc4)cc3c2F)cc1)c1ccccc1` [Example 130, tert-butyl {(1S)-2-[(2S)-2-({4-[5-({[(2S)-1-{(2S)-2-[(tert-butoxycarbonyl)amino]-2-phenylacetyl}pyrrolidin-2-yl]carbonyl}amino)-3-fluoro-1H-indol-2-yl]phenyl}carbamoyl)pyrrolidin-1-yl]-2-oxo-1-phenylethyl}carbamate], for which a half-maximal effect (EC50) was put at 0.05 nM. Then `CC(=O)Nc1ccc(-c2[nH]c3ccc(NC(=O)[C@@H]4CCCN4C(=O)[C@@H](NC(=O)OC(C)(C)C)c4ccccc4)cc3c2Cl)cc1` [Example 131, tert-butyl {(1S)-2-[(2S)-2-({2-[4-(acetylamino)phenyl]-3-chloro-1H-indol-5-yl}carbamoyl)pyrrolidin-1-yl]-2-oxo-1-phenylethyl}carbamate], with 17 nM. Consider `CC(=O)N1CCC[C@H]1C(=O)Nc1ccc(-c2[nH]c3ccc(NC(=O)[C@@H]4CCCN4C(=O)[C@H](NC(=O)OC(C)(C)C)c4ccccc4)cc3c2F)cc1` [Example 137, tert-butyl {(1R)-2-[(2S)-2-({2-[4-({[(2S)-1-acetylpyrrolidin-2-yl]carbonyl}amino)phenyl]-3-fluoro-1H-indol-5-yl}carbamoyl)pyrrolidin-1-yl]-2-oxo-1-phenylethyl}carbamate], for which the EC50 is 0.009 nM. Take `CC(C)(C)OC(=O)N[C@@H](C(=O)N1CCC[C@H]1C(=O)Nc1ccc2[nH]c(-c3ccc(N4CCCC4=O)cc3)c(F)c2c1)c1ccccc1` [Example 138, tert-butyl {(1R)-2-[(2S)-2-({3-fluoro-2-[4-(2-oxopyrrolidin-1-yl)phenyl]-1H-indol-5-yl}carbamoyl)pyrrolidin-1-yl]-2-oxo-1-phenylethyl}carbamate]: the EC50 came to 8.5 nM. The compound `CC(C)OC(=O)N[C@@H](C(=O)N1CCC[C@H]1C(=O)Nc1ccc(-c2[nH]c3ccc(NC(=O)[C@@H]4CCCN4C(=O)OC(C)(C)C)cc3c2F)cc1)c1ccccc1` [Example 144, tert-butyl (2S)-2-[(3-fluoro-2-{4-[({(2S)-1-[(2R)-2-phenyl-2-{[(propan-2-yloxy)carbonyl]amino}acetyl]pyrrolidin-2-yl}carbonyl)amino]phenyl}-1H-indol-5-yl)carbamoyl] pyrrolidine-1-carboxylate] showed an EC50 of 0.036 nM. The figure for `N#Cc1c(-c2ccc(NC(=O)[C@@H]3CCCN3C(=O)Cc3ccccc3)cc2)[nH]c2ccc(NC(=O)[C@@H]3CCCN3C(=O)Cc3ccccc3)cc12` [Example 155, (2S)—N-{4-[3-cyano-5-({[(2S)-1-(phenylacetyl)pyrrolidin-2-yl]carbonyl}amino)-1H-indol-2-yl]phenyl}-1-(phenylacetyl)pyrrolidine-2-carboxamide] is 0.9 nM.

(Values after US11053243B2 (Merck Sharp & Dohme Corp., priority 2009, dated 2021).)
